Biological target: T1, Rif16 (Amycolatopsis mediterranei, UniProt A0A0H3CVZ6)
T1 construct: gene AMED_0653; N-terminally His6-tagged Rif16 (rif16 from A. mediterranei S699)
Test: Type I spectral substrate binding titration; co-crystal structure at […] Å

T1 sequence (A0A0H3CVZ6 entry or part of it): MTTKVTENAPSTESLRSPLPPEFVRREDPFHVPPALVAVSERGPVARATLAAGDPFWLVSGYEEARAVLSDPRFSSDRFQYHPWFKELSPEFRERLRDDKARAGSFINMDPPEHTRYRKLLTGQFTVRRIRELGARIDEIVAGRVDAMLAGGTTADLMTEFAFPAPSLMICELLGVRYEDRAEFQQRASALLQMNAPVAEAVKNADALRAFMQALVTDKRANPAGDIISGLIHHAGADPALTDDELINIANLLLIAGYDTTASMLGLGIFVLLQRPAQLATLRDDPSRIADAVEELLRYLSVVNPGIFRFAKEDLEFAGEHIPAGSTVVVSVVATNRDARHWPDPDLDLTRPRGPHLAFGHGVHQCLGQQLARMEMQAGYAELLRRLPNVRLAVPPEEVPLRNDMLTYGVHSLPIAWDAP

CO[C@H]1/C=C/O[C@@]2(C)Oc3c(C)c(O)c4c(O)c(cc(OC(=O)CO)c4c3C2=O)NC(=O)/C(C)=C/C=C/[C@H](C)[C@H](O)[C@@H](C)[C@@H](O)[C@@H](C)[C@H](OC(C)=O)[C@@H]1C [R-L, rifamycin L]
Kd: 1300 ± 100 nM

— paper PMC6002545, “Deciphering the late steps of rifamycin biosynthesis” (Nature Communications, 2018)
